One molecule from patent US20160008490A1, “METAL CHELATE COMPOUNDS FOR BINDING TO THE PLATELET SPECIFIC GLYCOPROTEIN IIB/IIIA” (BAYER PHARMA AKTIENGESELLSCHAFT, priority 2013, published 2016) can be followed below.

The subject of series [1] is human activated platelets. Kind of series: Binding of investigated compounds to human activated platelets (ICP-MS of Gd in pellet and supernatant). The class given is cell-based. To be noted: incubation concentration 1 μM molecule. As to the method: For each experiment fresh blood was taken from a volunteer using 10 mL citrate-tubes (Sarstedt S-Monovette 02.1067.001, 10 mL, Citrate 3.13%). The 10 mL citrate-tubes were carefully inverted 10 times to mix blood and anticoagulant. The tubes were stored in an incubator at a temperature of 37° C. until centrifugation (Heraeus miniTherm CTT with integrated rotation- and turning device, turning speed: 19 rotations per minute, Heraeus Instruments GmbH, Hanau/Germany).
For plasma preparation tube centrifugation was carried out for 15 minutes at 1811 g at room temperature (Eppendorf, Centrifuge 5810R). Blood was centrifuged 15 minutes at 201 g at room temperature to produce platelet-rich plasma. The tubes were stored for 30 min at room temperature to get a better separation. The separated platelet-rich plasma was finally centrifuged for further 3 min at 453 g to remove the remaining erythrocytes. The platelet-rich plasma was activated using a final concentration of 5 μM Adenosindiphosphate (ADP, Sigma). The activated platelet-rich plasma was incubated 20 minutes with different concentrations of gadolinium-labeled compound and subsequently was centrifuged 3 minutes at 1360 g. 20 μL of incubation solution was taken to determine the concentration (n=3). […] The gadolinium concentration of supernatant and pellet was determined using an inductively coupled plasma mass spectrometry (ICP-MS Agilent 7500a).
The results for incubation concentration of 1 μM gadolinium-labeled compound are summarized in table 3 (in comparison to Gadovist® standard dose: 100 μmol Gd/kg body weight).

Series [2] is described as follows: Relaxivity measurements at 1.41 T in water and plasma. The class given is physicochemical. To be noted: relaxivity normalized to Gd, 37° C. As to the method:
Relaxivity measurements at 1.41 T were performed using a MiniSpec mq60 spectrometer (Bruker Analytik, Karlsruhe) operating at a resonance frequency of 60 MHz and a temperature of 37° C. The T1 relaxation times were determined using the standard inversion recovery method. The T2 measurements were done by using the Carr-Purcell-Meiboom-Gill (CPMG) pulse sequence. All measurements were done at concentrations between 0.05 mM and 1 mM of Gd in water and plasma.
The relaxivities ri (where i=1, 2) were calculated on the basis of the measured relaxation rates Ri in water and plasma:
where Ri(0) represent the relaxation rate of the respective solvent and CGd the concentration of the compound normalized to the Gadolium.

Series [3] relates to in vitro platelet-rich thrombi. Kind of series: Magnetic resonance imaging of in vitro platelet-rich thrombi. To be noted: 10 μmol substance/L, 20 min incubation, washed three times with plasma, 1.5 T, versus control thrombus without contrast agent. In kind it is cell-based, human. The procedure: Magnetic resonance imaging of in vitro platelet-rich thrombi and incubation solution (example 8) using a 3D turbo spin echo sequence (1.5 T, Siemens Avanto, small extremity coil, TR 1050 ms, TE 9.1 ms, 0.5×0.5×0.6 mm^3). In FIG. 2a an in vitro control thrombus without the addition of a contrast agent is shown. The signal intensity of the control thrombus is slightly higher than the surrounding medium but clearly lower than the signal of the in vitro thrombus which was incubated with example 8 as depicted in FIG. 2b. In FIG. 2c the incubation solution with a final concentration of 10 μmol substance/L of example 8 in human plasma is represented. The signal intensity is higher than the surrounding plasma solutions in the in vitro platelet-rich thrombi 2a and 2b.
The in vitro thrombus in FIG. 2b is incubated with the solution which is depicted in FIG. 2c. After 20 min incubation period the thrombi was washed three times with plasma solution.
The MRI imaging experiments were done with platelet-rich plasma. The preparation of platelet-rich plasma using fresh blood is described in L K Jennings et. al. Blood 1986 1, 173-179 but modified with regard to centrifugation procedure. Briefly, fresh blood was taken from a volunteer using 10 mL citrate-tubes (Sarstedt S-Monovette 02.1067.001, 10 mL, Citrate 3.13%). The 10 mL citrate-tubes were carefully inverted 10 times to mix blood and anticoagulant. […]

As for `CC(C(=O)NCC(=O)NC[C@H](NC(=O)CNC(=O)C(C)N1CCN(CC(=O)O)CCN(CC(=O)O)CCN(CC(=O)O)CC1)C(=O)NC[C@H](NC(=O)[C@H](CNC(=O)CNC(=O)C(C)N1CCN(CC(=O)O)CCN(CC(=O)O)CCN(CC(=O)O)CC1)NC(=O)CNC(=O)C(C)N1CCN(CC(=O)O)CCN(CC(=O)O)CCN(CC(=O)O)CC1)C(=O)NCCCCc1cccc(C#Cc2cncc([C@H](CC(=O)O)NC(=O)[C@@H]3CCCN(C(=O)CCC4CCNCC4)C3)c2)c1)N1CCN(CC(=O)O)CCN(CC(=O)O)CCN(CC(=O)O)CC1` (some centres unmarked) [Example 8], in series [1] (ADP-activated platelet-rich plasma, 20 minutes, pellet washed), the “Concentration within platelet pellet” value amounted to 26.7 ± 1.5 μM Gd. Besides, the pellet/supernatant in series [1] (ratio of Gd concentration) was 254 ± 26 (n = 3). The r1 plasma in series [2] (plasma) is 14.5 L/mmol/s. Besides, in series [2] (water), the r1 water was determined as 12.6 L/mmol/s. In addition, the “signal intensity of incubated in vitro thrombus (T1-weighted 3D TSE MRI)” value in series [3] was “clearly higher signal than the control thrombi”.
